These compounds were tested against HEK293 cells with stable expression of the GRIN1 gene and tetracycline-inducible expression of the GRIN2B gene (NMDA receptor, NR2B) (Homo sapiens, UniProt Q13224) (assay: Fluo-8 Ca2+ flux assay: reversal of Ro 25-6981-mediated suppression of the Ca2+ response to co-agonist (glutamate/glycine)). Details: reversal of the Ro 25-6981 suppression of the Ca2+ response to co-agonist (glutamate/glycine).
Format: cell-based
Further: test concentration or dose not given here.

HEK293 cells with stable expression of the GRIN1 gene and tetracycline-inducible expression of the GRIN2B gene (NMDA receptor, NR2B), sequence (Q13224 27-1484, other chains not shown): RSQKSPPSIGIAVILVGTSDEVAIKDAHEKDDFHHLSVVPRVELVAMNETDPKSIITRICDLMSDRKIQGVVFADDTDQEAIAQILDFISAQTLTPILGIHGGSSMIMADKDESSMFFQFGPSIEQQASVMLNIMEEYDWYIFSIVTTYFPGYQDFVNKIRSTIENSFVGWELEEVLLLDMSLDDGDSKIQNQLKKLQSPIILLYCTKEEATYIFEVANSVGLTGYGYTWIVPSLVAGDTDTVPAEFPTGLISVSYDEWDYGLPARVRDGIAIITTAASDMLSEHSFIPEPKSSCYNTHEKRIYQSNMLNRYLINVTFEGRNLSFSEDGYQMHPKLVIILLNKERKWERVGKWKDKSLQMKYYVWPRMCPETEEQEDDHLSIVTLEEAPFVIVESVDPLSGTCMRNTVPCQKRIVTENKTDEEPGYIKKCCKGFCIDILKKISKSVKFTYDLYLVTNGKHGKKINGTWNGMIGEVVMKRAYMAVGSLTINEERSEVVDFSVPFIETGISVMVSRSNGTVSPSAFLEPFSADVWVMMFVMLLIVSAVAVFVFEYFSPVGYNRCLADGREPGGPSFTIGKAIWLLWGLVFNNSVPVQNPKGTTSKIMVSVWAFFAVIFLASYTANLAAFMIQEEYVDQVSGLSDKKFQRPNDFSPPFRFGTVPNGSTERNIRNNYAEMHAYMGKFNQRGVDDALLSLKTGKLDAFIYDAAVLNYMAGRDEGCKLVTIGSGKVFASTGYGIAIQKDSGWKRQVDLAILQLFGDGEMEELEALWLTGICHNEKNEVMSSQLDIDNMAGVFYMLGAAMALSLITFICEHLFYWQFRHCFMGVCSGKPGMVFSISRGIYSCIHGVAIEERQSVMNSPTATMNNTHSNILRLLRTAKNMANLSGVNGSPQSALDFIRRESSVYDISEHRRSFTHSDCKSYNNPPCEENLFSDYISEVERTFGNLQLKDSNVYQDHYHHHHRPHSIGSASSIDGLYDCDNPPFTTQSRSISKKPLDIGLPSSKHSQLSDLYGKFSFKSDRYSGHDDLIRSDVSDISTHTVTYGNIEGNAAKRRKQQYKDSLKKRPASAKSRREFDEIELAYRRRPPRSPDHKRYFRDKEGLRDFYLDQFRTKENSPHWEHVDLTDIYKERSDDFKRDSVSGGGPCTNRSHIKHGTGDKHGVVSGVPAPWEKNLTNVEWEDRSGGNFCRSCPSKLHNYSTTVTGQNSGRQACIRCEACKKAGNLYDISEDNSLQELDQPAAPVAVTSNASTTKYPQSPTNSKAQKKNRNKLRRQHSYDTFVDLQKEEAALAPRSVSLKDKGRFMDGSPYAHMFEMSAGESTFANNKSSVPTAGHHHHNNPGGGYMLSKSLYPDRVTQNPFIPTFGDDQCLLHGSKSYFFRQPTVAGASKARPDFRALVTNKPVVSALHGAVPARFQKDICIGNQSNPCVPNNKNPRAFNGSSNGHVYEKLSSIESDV

| SMILES | Response Recovered (%) |
| --- | --- |
| O=C(Cn1ccc2c(c(-c3ccc(F)c(C(F)(F)F)c3)cn2-c2ccccc2)c1=O)N1CCC(F)C1 (stereo not drawn) [Example 230, 3-(4-fluoro-3-(trifluoromethyl)phenyl)-5-(2-(3-fluoropyrrolidin-1-yl)-2-oxoethyl)-1-phenyl-1H-pyrrolo[3,2-c]pyridin-4(5H)-one] | 109% |
| Cn1cc(-c2ccc(Cl)cc2)c2c(=O)n(CC(=O)N3CCCC3C(F)(F)F)cnc21 (stereo not drawn) [Example 153, 5-(4-chlorophenyl)-7-methyl-3-(2-oxo-2-(2-(trifluoromethyl)pyrrolidin-1-yl)ethyl)-3H-pyrrolo[2,3-d]pyrimidin-4(7H)-one] | 35% |
| N=C(NO)c1cn(CC(=O)N2CCC(F)C2)c(=O)c2c(-c3ccc(F)c(C(F)(F)F)c3)csc12 (stereo not drawn) [Example 110, 3-(4-fluoro-3-(trifluoromethyl)phenyl)-5-(2-(3-fluoropyrrolidin-1-yl)-2-oxoethyl)-N-hydroxy-4-oxo-4,5-dihydrothieno[3,2-c]pyridine-7-carboximidamide] | 33% |
| O=C(Cn1cnc2[nH]cc(-c3ccc(Cl)c(C(F)(F)F)c3)c2c1=O)N1CCC(F)C1 (stereo not drawn) [Example 177, 5-(4-chloro-3-(trifluoromethyl)phenyl)-3-(2-(3-fluoropyrrolidin-1-yl)-2-oxoethyl)-3H-pyrrolo[2,3-d]pyrimidin-4(7H)-one] | 85% |
| COCCn1cc(-c2ccc(F)c(C(F)(F)F)c2)c2c(=O)n(CC(=O)N3CCC(F)C3)cnc21 (stereo not drawn) [Example 188, 5-(4-fluoro-3-(trifluoromethyl)phenyl)-3-(2-(3-fluoropyrrolidin-1-yl)-2-oxoethyl)-7-(2-methoxyethyl)-3H-pyrrolor[2,3-d]pyrimidin-4(7H)-one] | 53% |
| CC1(N)CN(C(=O)Cn2ccc3scc(-c4ccc(F)c(Cl)c4)c3c2=O)C1 [Example 95] | 1% |
| O=C(Cn1ccc2scc(-c3ccc(F)c(C(F)(F)F)c3)c2c1=O)N1CC(F)C1 [Example 32, 3-(4-fluoro-3-(trifluoromethyl)phen-yl)-5-(2-(3-fluoroazetidin-1-yl)-2-oxoethyl)thieno[3,2-c]pyridin-4(5H)-one] | 60% |
| O=C(Cn1ccc2scc(-c3ccc(C(F)(F)F)c(Cl)c3)c2c1=O)N1CCC(F)C1 (stereo not drawn) [Example 13, 3-(3-chloro-4-(trifluoromethyl)phenyl)-5-(2-(3-fluoropyrrolidin-1-yl)-2-oxoethyl)thieno[3,2-c]pyridin-4(5H)-one] | 90% |
| O=C(Cn1cnc2[nH]nc(-c3ccc(Cl)c(C(F)(F)F)c3)c2c1=O)N1CCC(F)C1 (stereo not drawn) [Example 318, 3-(4-chloro-3-(trifluoromethyl)phenyl)-5-(2-(3-fluoropyrrolidin-1-yl)-2-oxoethyl)-1H-pyrazolo[3,4-d]pyrimidin-4(5H)-one] | 26% |
| O=C(Cn1ccc2c(c(-c3ccc(Cl)c(Cl)c3)cn2-c2ccccn2)c1=O)N1CCC(F)C1 (stereo not drawn) [Example 229, 3-(3,4-dichlorophenyl)-5-(2-(3-fluoropyrrolidin-1-yl)-2-oxoethyl)-1-(pyridin-2-yl)-1H-pyrrolo[3,2-c]pyridin-4(5H)-one] | 78% |
| CC1CN(C(=O)Cn2ccc3scc(-c4ccc(F)c(C(F)(F)F)c4)c3c2=O)C1 [Example 60, 3-(4-fluoro-3-(trifluoromethyl)phen-yl)-5-(2-(3-methylazetidin-1-yl)-2-oxoethyl)thieno[3,2-c]pyridin-4(5H)-one] | 76% |
| O=C(Cn1ccc2c(c(-c3ccc(F)c(C(F)(F)F)c3)cn2-c2ncccn2)c1=O)N1CCC(F)C1 (stereo not drawn) [Example 243, 3-(4-fluoro-3-(trifluoromethyl)phenyl)-5-(2-(3-fluoropyrrolidin-1-yl)-2-oxoethyl)-1-(pyrimidin-2-yl)-1H-pyrrolo[3,2-c]pyridin-4(5H)-one] | 96% |
| CN(C)Cc1cn(CC(=O)N2CCC(F)C2)c(=O)c2c(-c3ccc(F)c(Cl)c3)csc12 (stereo not drawn) [Example 120, 3-(3-chloro-4-fluorophenyl)-7-((dimelhylamino)methyl)-5-(2-(3-fluoropyrrolidin-1-yl)-2-oxoethyl)thieno[3,2-c]pyridin-4(5H)-one] | 61% |

Second part, the compound after the results:

| Response Recovered (%) | SMILES |
| --- | --- |
| 2% | O=C(Cn1cnc2onc(-c3ccc(Cl)cc3)c2c1=O)N1CCCC1C(F)(F)F (stereo not drawn) [Example 384, 3-(4-chlorophenyl)-5-{2-oxo-2-[2-(trifluoromethyl)pyrrolidin-1-yl]ethyl}-4H,5H-[1,2]oxazolo[5,4-d]pyrimidin-4-one] |
| 33% | Cc1sc(-c2ccc(Cl)c(F)c2)c2c(=O)n(CC(=O)N3CCCC3)cnc12 [Example 369, 5-(4-chloro-3-fluorophenyl)-7-methyl-3-(2-oxo-2-(pyrrolidin-1-yl)ethyl)thieno[3,4-d]pyrimidin-4(3H)-one] |
| 51% | Cn1cc(-c2ccc(F)c(Cl)c2)c2c(=O)n(CC(=O)N3CCC(F)C3)ccc21 (stereo not drawn) [Example 247, 3-(3-chloro-4-fluorophenyl)-5-(2-(3-fluoropyrrolidin-1-yl)-2-oxoethyl)-1-methyl-1H-pyrrolo[3,2-c]pyridin-4(5H)-one] |
| 11% | Cc1nc(-c2ccc(Cl)c(Cl)c2)c2c(=O)n(CC(=O)N3CCC(F)C3)ccn12 (stereo not drawn) [Example 429, 1-(3,4-dichlorophenyl)-7-(2-(3-fluoropyrrolidin-1-yl)-2-oxoethyl)-3-methylimidazo[1,5-a]pyrazin-8(7H)-one] |
| 51% | O=C(Cn1ccn2ncc(-c3ccc(F)c(C(F)(F)F)c3)c2c1=O)N1CC(F)(F)C1 [Example 324, 5-(2-(3,3-difluoroazetidin-1-yl)-2-oxoethyl)-3-(4-fluoro-3-(trifluoromethyl)phenyl)pyrazolo[1,5-a]pyrazin-4(5H)-one] |
| 33% | O=C(Cn1ccc2ncc(-c3ccc(Cl)c(Cl)c3)n2c1=O)N1CCC(F)C1 (stereo not drawn) [Example 450, 3-(3,4-dichlorophenyl)-6-(2-(3-fluoropyrrolidin-1-yl)-2-oxoethyl)imidazo[1,2-c]pyrimidin-5(6H)-one] |
| 78% | O=C(Cn1ccc2cccc(-c3ccc(Cl)c(Cl)c3)c2c1=O)N1CCCC1 [Example 308] |
| 40% | O=C(Cn1ccn2ncc(-c3ccc(F)c(C(F)(F)F)c3)c2c1=O)N1CCCC1 [Example 323, 3-(4-fluoro-3-(trifluoromethyl)phenyl)-5-(2-oxo-2-(pyrrolidin-1-yl)ethyl)pyrazolo[1,5-a]pyrazin-4(5H)-one] |
| 15% | O=C(Cn1ncc2scc(-c3ccc(F)c(Cl)c3)c2c1=O)N1CCC(F)C1 (stereo not drawn) [Example 343, 3-(3-chloro-4-fluorophenyl)-5-(2-(3-fluoropyrrolidin-1-yl)-2-oxoethyl)theino[2,3-d]pyridazin-4(5H)-one] |
| 60% | O=C(Cn1ccc2cccc(-c3ccc(Cl)c(Cl)c3)c2c1=O)N1CCC(F)C1 (stereo not drawn) [Example 304, 8-(3,4-dichlorophenyl)-2-(2-(3-fluoropyrrolidin-1-yl)-2-oxoethyl)isoquinolin-1(2H)-one] |
| 140% | Cn1cc(-n2cc(-c3ccc(F)c(Cl)c3)c3c(=O)n(CC(=O)N4CC(C)(F)C4)ccc32)nn1 [Example 271, 3-(3-chloro-4-fluorophenyl)-5-(2-(3-fluoro-3-methylazetidin-1-yl)-2-oxoethyl)-1-(1-methyl-1H-1,2,3-triazol-4-yl)-1H-pyrrolo[3,2-c]pyridin-4(5H)-one] |
